Target: LuxS (S-ribosylhomocysteinase) (Streptococcus suis, UniProt A4VZM6)
Assay: Ellman (DTNB) homocysteine assay, […] nm, SRH as substrate
Type: biochemical
Details: SRH 0-1200 uM, sodium phosphate buffer, 37 C, 15 min, LuxS 1 mg/mL

Chain of LuxS (S-ribosylhomocysteinase) (A4VZM6 whole entry): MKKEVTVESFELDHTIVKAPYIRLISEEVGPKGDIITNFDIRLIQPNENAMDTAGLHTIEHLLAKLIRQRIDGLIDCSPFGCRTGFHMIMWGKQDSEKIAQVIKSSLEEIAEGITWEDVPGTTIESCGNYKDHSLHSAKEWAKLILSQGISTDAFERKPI

Compound	Ellman (DTNB) homocysteine assay, 412 nm, SRH as substrate (competitive)	Ellman (DTNB) homocysteine assay, 412 nm, SRH as substrate (noncompetitive)
COc1ccc(/C=C/c2cc(O)cc(O[C@@H]3O[C@H](CO)[C@@H](O)[C@H](O)[C@H]3O)c2)cc1O [RH, rhapontin]	indicating a competitive inhibitory impact of RH on LuxS	
O=C(/C=C/c1ccc(O)c(O)c1/C=C/c1ccc(O)c(O)c1)O[C@H](Cc1ccc(O)c(O)c1)C(=O)O [SAA, salvianolic acid A]		suggesting a noncompetitive inhibitory effect of SAA on LuxS

Reference: PMC11796197, “Targeting AI-2 quorum sensing: harnessing natural products against Streptococcus suis biofilm infection” (Veterinary Research, 2025)
